From ChEMBL document CHEMBL1130816, “Synthesis and antibacterial activity of O-methyl derivatives of azalide antibiotics: II. 6-OME derivatives via clarithromycin” (1998) come the findings set out here.

Usually MIC stands for the lowest concentration found to suppress growth. Higher therefore signals a less susceptible organism.

What all share (format): functional
One experiment has as its system Bacillus subtilis. Briefly: Compound was evaluated for antibacterial activity against Bacillus subtilis (MB5586) sensitive strain.
Another experiment relates to Enterococcus faecium. Briefly: Compound was evaluated for antibacterial activity against Enterococcus faecium (MB5516) sensitive strain.
The subject of the next experiment is Enterococcus faecalis. As to the kind of experiment: Compound was evaluated for antibacterial activity against Enterococcus faecalis (MB5407) sensitive strain.
The next experiment relates to Staphylococcus aureus. As to the kind of experiment: Compound was evaluated for antibacterial activity against Staphylococcus aureus (MB2865) sensitive strain.
The next experiment has as its system Streptococcus pyogenes. Briefly: Compound was evaluated for antibacterial activity against Streptococcus pyogenes (MB2874) sensitive strain.
Another experiment deals with Streptococcus pneumoniae. Briefly: Compound was evaluated for antibacterial activity against Streptococcus pneumoniae (MB3957) sensitive strain.

≈ marks a conversion by molar mass, not a printed value.

With `CC[C@H]1OC(=O)[C@H](C)[C@@H](O[C@H]2C[C@@](C)(OC)[C@@H](OC)[C@@H](C)O2)[C@H](C)[C@@H](O[C@@H]2O[C@H](C)C[C@@H](N(C)C)[C@H]2O)[C@](C)(O)C[C@@H](C)N(C)C[C@H](C)[C@@H](OC)[C@]1(C)OC`, the MIC against Bacillus subtilis was found to be 2 µg/mL (≈ 2.53 µM); with Enterococcus faecium it was 8 µg/mL (≈ 10.1 µM); in the experiment with Enterococcus faecalis, 32 µg/mL (≈ 40.5 µM); in the experiment on Staphylococcus aureus, 32 µg/mL (≈ 40.5 µM); in the experiment with Streptococcus pyogenes it was 0.5 µg/mL (≈ 0.632 µM); with Streptococcus pneumoniae it was 4 µg/mL (≈ 5.06 µM).

As for `CC[C@H]1OC(=O)[C@H](C)[C@@H](O[C@H]2C[C@@](C)(OC)[C@@H](OC)[C@@H](C)O2)[C@H](C)[C@@H](O[C@@H]2O[C@H](C)C[C@@H](N(C)C)[C@H]2O)[C@](C)(O)C[C@@H](C)N(C)C[C@H](C)[C@@H](O)[C@]1(C)O`, the MIC in the experiment with Bacillus subtilis stood at 4 µg/mL (≈ 5.24 µM); in the experiment on Enterococcus faecium, 2 µg/mL (≈ 2.62 µM); in the experiment with Enterococcus faecalis, 8 µg/mL (≈ 10.5 µM); with Staphylococcus aureus it was 8 µg/mL (≈ 10.5 µM); against Streptococcus pyogenes, 0.03 µg/mL (≈ 0.0393 µM); with Streptococcus pneumoniae it was 0.5 µg/mL (≈ 0.655 µM).

As to `CC[C@H]1OC(=O)[C@H](C)[C@@H](O[C@H]2C[C@@](C)(OC)[C@@H](OC)[C@@H](C)O2)[C@H](C)[C@@H](O[C@@H]2O[C@H](C)C[C@@H](N(C)C)[C@H]2O)[C@](C)(OC)C[C@@H](C)N(C)C[C@H](C)[C@@H](OC)[C@]1(C)OC`, the MIC against Bacillus subtilis came out at 8 µg/mL (≈ 9.94 µM); with Enterococcus faecium it was 8 µg/mL (≈ 9.94 µM); in the experiment on Enterococcus faecalis, 32 µg/mL (≈ 39.7 µM); in the experiment with Staphylococcus aureus it was 32 µg/mL (≈ 39.7 µM); in the experiment on Streptococcus pyogenes, 0.5 µg/mL (≈ 0.621 µM); against Streptococcus pneumoniae, 4 µg/mL (≈ 4.97 µM).

Consider `CC[C@H]1OC(=O)[C@H](C)[C@@H](O[C@H]2C[C@@](C)(OC)[C@@H](O)[C@H](C)O2)[C@H](C)[C@@H](O[C@@H]2O[C@H](C)C[C@H](N(C)C)[C@H]2O)[C@](C)(O)C[C@@H](C)CN(C)[C@H](C)[C@@H](O)[C@]1(C)O` [AZITHROMYCIN], for which the MIC against Bacillus subtilis is 1 µg/mL (≈ 1.34 µM); against Enterococcus faecium it was 0.25 µg/mL (≈ 0.334 µM); against Enterococcus faecalis, 4 µg/mL (≈ 5.34 µM); with Staphylococcus aureus, 0.5 µg/mL (≈ 0.668 µM); against Streptococcus pyogenes, 0.03 µg/mL (≈ 0.0401 µM); against Streptococcus pneumoniae, < 0.06 µg/mL.

Turning to `CC[C@H]1OC(=O)[C@H](C)[C@@H](O[C@H]2C[C@@](C)(OC)[C@H](O)[C@H](C)O2)[C@H](C)[C@@H](O[C@@H]2O[C@H](C)C[C@H](N(C)C)[C@H]2O)[C@](C)(O)C[C@@H](C)N(C)C[C@H](C)[C@@H](O)[C@]1(C)O`, the MIC with Bacillus subtilis was 0.3 µg/mL (≈ 0.401 µM); against Enterococcus faecium it was 0.125 µg/mL (≈ 0.167 µM); against Enterococcus faecalis, 2 µg/mL (≈ 2.67 µM); in the experiment on Staphylococcus aureus, 0.3 µg/mL (≈ 0.401 µM); with Streptococcus pyogenes, < 0.06 µg/mL; with Streptococcus pneumoniae, < 0.06 µg/mL.

With `CC[C@H]1OC(=O)[C@H](C)[C@@H](O[C@H]2C[C@@](C)(OC)[C@@H](O)[C@@H](C)O2)[C@H](C)[C@@H](O[C@@H]2O[C@H](C)C[C@@H](N(C)C)[C@H]2O)[C@](C)(OC)C[C@@H](C)N(C)C[C@H](C)[C@@H](O)[C@]1(C)O`, the MIC was 1 µg/mL (≈ 1.31 µM) against Bacillus subtilis; 1 µg/mL (≈ 1.31 µM) in the experiment on Enterococcus faecium; 16 µg/mL (≈ 21 µM) in the experiment with Enterococcus faecalis; 2 µg/mL (≈ 2.62 µM) in the experiment with Staphylococcus aureus; 0.06 µg/mL (≈ 0.0786 µM) in the experiment with Streptococcus pyogenes; 0.5 µg/mL (≈ 0.655 µM) in the experiment with Streptococcus pneumoniae.

On to `CC[C@H]1OC(=O)[C@H](C)[C@@H](O[C@H]2C[C@@](C)(OC)[C@@H](O)[C@@H](C)O2)[C@H](C)[C@@H](O[C@@H]2O[C@H](C)C[C@@H](N(C)C)[C@H]2O)[C@](C)(OC)C[C@@H](C)CN(C)[C@H](C)[C@@H](O)[C@]1(C)O`, for which the MIC turned out to be 1 µg/mL (≈ 1.31 µM) in the experiment with Bacillus subtilis; 1 µg/mL (≈ 1.31 µM) against Enterococcus faecium; 8 µg/mL (≈ 10.5 µM) in the experiment on Enterococcus faecalis; 2 µg/mL (≈ 2.62 µM) against Staphylococcus aureus; 0.12 µg/mL (≈ 0.157 µM) in the experiment with Streptococcus pyogenes; 0.5 µg/mL (≈ 0.655 µM) against Streptococcus pneumoniae.
